ChEMBL document CHEMBL1158784, “Sorbicillin analogues and related dimeric compounds from Penicillium notatum” (2005)
Activity calls are given as the source filed them. The rule behind the calls is not given here.

How the values were obtained:
[1] = tested on: Rhizomucor miehei; test: Antimicrobial activity against Mucor miehei at 20 ug/9 mm disk by agar diffusion method; assay type: functional, organism-based
[2] = tested on: Bacillus subtilis; test: Antimicrobial activity against Bacillus subtilis at 20 ug/9 mm disk by agar diffusion method; assay type: functional
[3] = tested on: Escherichia coli; test: Antimicrobial activity against Escherichia coli at 20 ug/9 mm disk by agar diffusion method; assay type: functional, organism-based
[4] = tested on: Streptomyces viridochromogenes; test: Antimicrobial activity against Streptomyces viridochromogenes Tu57 at 20 ug/9 mm disk by agar diffusion method; assay type: functional, organism-based
[5] = tested on: Staphylococcus aureus; test: Antimicrobial activity against Staphylococcus aureus at 20 ug/9 mm disk by agar diffusion method; assay type: functional
[6] = tested on: Chlorella sorokiniana; test: Antimicrobial activity against Chlorella sorokiniana at 20 ug/9 mm disk by agar diffusion method; assay type: functional, organism-based
[7] = tested on: Candida albicans; test: Antimicrobial activity against Candida albicans at 20 ug/9 mm disk by agar diffusion method; assay type: functional
[8] = tested on: Desmodesmus subspicatus; test: Antimicrobial activity against Scenedesmus subspicatus at 20 ug/9 mm disk by agar diffusion method; assay type: functional, organism-based
[9] = tested on: Chlorella vulgaris; test: Antimicrobial activity against Chlorella vulgaris at 20 ug/9 mm disk by agar diffusion method; assay type: functional, organism-based

SMILES | Activity [1] | inhibition zone (IZ) [2] [mm] | Activity [3] | Activity [4] | inhibition zone (IZ) [5] [mm] | Activity [6] | inhibition zone (IZ) [7] [mm] | Activity [8] | Activity [9] | Activity [2] | Activity [5] | Activity [7]
C/C=C/C=C/C(O)=C1/C(=O)[C@](C)(O)C(=O)C(C)=C1O | inactive | 12 | inactive | inactive | 12 | inactive | 13 | inactive | inactive | – | – | –
C/C=C/CCC(=O)c1cc(C)c(O)c(C)c1O | inactive | 12 | inactive | inactive | 12 | inactive | 13 | inactive | inactive | – | – | –
CC(C)=CCC/C(C)=C/CC/C(C)=C/C[C@@]12O[C@@H]1[C@H](O)C(C)=CC2=O | inactive | 12 | inactive | inactive | 12 | inactive | 13 | inactive | inactive | – | – | –
C/C=C/C=C/C(=O)C1=C(C)C(=O)C(O)=C(C)C1=O | inactive | – | inactive | inactive | – | inactive | – | inactive | inactive | inactive | inactive | inactive
C/C=C/C=C/C(=O)C1=C[C@@]2(C)[C@H]3C(C(=O)/C=C/C=C/C)=C(O)C(C)=C(O)[C@@]3(C)O[C@@]2(O)[C@@](C)(O)C1=O | inactive | – | inactive | inactive | – | inactive | – | inactive | inactive | inactive | inactive | inactive
C/C=C/C=C/C(O)=C1\C(=O)C(C)=C(O)[C@@](C)(O)C1=O | inactive | – | inactive | inactive | – | inactive | – | inactive | inactive | inactive | inactive | inactive
C/C=C/CCC(=O)c1c(C)c(O)c(O)c(C)c1O | inactive | – | inactive | inactive | – | inactive | – | inactive | inactive | inactive | inactive | inactive
C/C=C/C=C/C(=O)[C@]12C(=O)C(C)=C(O)[C@@](C)(O)[C@H]1[C@H]1\C(=C(O)/C=C/C=C/C)C(=O)[C@]2(C)C(=O)[C@@]1(C)O [BISORBICILLINOL] | inactive | 12 | inactive | inactive | 12 | inactive | 13 | inactive | inactive | – | – | –
C/C=C/C=C/C(O)=C1/C(=O)[C@]2(C)C(=O)[C@@](C)(O)[C@H]1[C@H]1[C@]2(C(=O)CC/C=C/C)C(=O)C(C)=C(O)[C@@]1(C)O [BISVERTINOQUINOL] | inactive | 12 | inactive | inactive | 12 | inactive | 13 | inactive | inactive | – | – | –
C/C=C/C=C/C(O)=C1\C(=O)[C@]2(C)C(=O)[C@@](C)(O)[C@H]1[C@H]1OC(=O)C[C@]12CO [REZISHANONE A] | inactive | 12 | inactive | inactive | 12 | inactive | 13 | inactive | inactive | – | – | –
C/C=C/C=C/C(O)=C1\C(=O)[C@]2(C)C(=O)[C@@](C)(O)[C@H]1C[C@@H]2OCCCC [REZISHANONE B] | inactive | 12 | inactive | inactive | 12 | inactive | 13 | inactive | inactive | – | – | –
C/C=C/C=C/C(O)=C1\C(=O)[C@]2(C)C(=O)[C@@](C)(O)[C@H]1C[C@@H]2OCC [REZISHANONE C] | inactive | 12 | inactive | inactive | 12 | inactive | 13 | inactive | inactive | – | – | –
C/C=C/CC/C(O)=C1\C(=O)[C@]2(C)C(=O)[C@@](C)(O)[C@H]1C[C@@H]2OCC [REZISHANONE D] | inactive | 12 | inactive | inactive | 12 | inactive | 13 | inactive | inactive | – | – | –
C/C=C/CCC(=O)c1cc(C)c(O)cc1O [SOHIRNONE A] | inactive | 12 | inactive | inactive | 12 | inactive | 13 | inactive | inactive | – | – | –
C/C=C/C=C/C(=O)c1c(C)c(O)c(O)c(C)c1O [SOHIRNONE B] | inactive | 12 | inactive | inactive | 12 | inactive | 13 | inactive | inactive | – | – | –
